“Also recorded” adds a separate entry of the source.
Experiments:
Type in all cases: cell-based, Fasciola hepatica
[1] = test system: F. hepatica newly excysted juveniles (NEJs), Italian strain; assay: Ex vivo screen against newly excysted juveniles (NEJs), phenotype and motility scoring; details: 10 µM; for Average motility of 25 NEJs with 95% CI, 24 hours / Average motility of 25 NEJs with 95% CI, 48 hours / Average motility of 25 NEJs with 95% CI, 72 hours: motility score 1 good/normal to 5 no movement; for Average phenotype of 25 NEJs with 95% CI, 24 hours / Average phenotype of 25 NEJs with 95% CI, 48 hours / Average phenotype of 25 NEJs with 95% CI, 72 hours: ultrastructure score 1 normal to 6 dead or dissolved; for Activity against NEJs (first screen), in words: 72 h co-culture
Description: […] The NEJs were excysted from metacercariae and assayed at 10 μM (in 0.1% DMSO) final concentration alongside negative (0.1% DMSO) and positive (10 μM TCBZ, in 0.1% DMSO) controls as previously described. The MC and IVL compound series were screened separately.
The motility (1—good/normal; 2—moderate; 3—low; 4—very little; 5—no movement) and phenotypic (ultrastructural changes) scores were noted according to a previously described scoring matrix (Figure S1 and Table S2).

[2] = test system: wild strain adult F. hepatica; assay: Ex vivo motility assay on adult liver flukes (wild strain); details: 40 µM; for Effect on wild strain adult fluke motility, in words: 72 h; for Average motility of 4 parasites with 95% CI at 72 hour time point: wild strain adult flukes, score 1 good/normal to 6 no movement or dead
Description: Due to the high number of active molecules and a shortage of Italian strain adult liver flukes, the eleven hit compounds were screened for 72 h at 40 µM (in 0.4% DMSO) on wild strain adult F. hepatica (n = 4/condition) of unknown provenance (Table S3). The protocol for culturing and scoring (motility) the activity of these compounds was previously described (1—good/normal; 2—moderate; 3—resting (less than 10 s pulses of body and head), 4—apathetic (less than 2 s pulses of body and head), 5—paralysis and 6–no movement or dead worms). Six compounds were deemed active in these assays and were selected for further screening.

[3] = test system: immature F. hepatica flukes (Italian strain); assay: Ex vivo motility assay on immature liver flukes (Italian strain), single concentration and dose response; details: 40 µM
Description: The six selected compounds (at 40 µM in 0.4% DMSO) were evaluated on immature flukes (n = 4/condition) at 24, 48 and 72 h (Table S4). The protocol for culturing and scoring (motility) of these life stages have been previously described. Due to restricted numbers of immature worms, a dose response assay was conducted only for MC042. Here, immature worms (n = 2/concentration tested) were screened against descending concentrations of MC042 (40 µM, 13.3 µM and 4.4 µM); motility scores were recorded at 24, 48 and 72 h (Table S5). The scoring pattern used is identical to that described for NEJs.

Row | SMILES | Average motility of 25 NEJs with 95% CI, 24 hours [1] | Average phenotype of 25 NEJs with 95% CI, 24 hours [1] | Average motility of 25 NEJs with 95% CI, 48 hours [1] | Average phenotype of 25 NEJs with 95% CI, 48 hours [1] | Average motility of 25 NEJs with 95% CI, 72 hours [1] | Average phenotype of 25 NEJs with 95% CI, 72 hours [1] | Activity against NEJs (first screen), in words [1] | Effect on wild strain adult fluke motility, in words [2] | Average motility of 4 parasites with 95% CI at 72 hour time point [2] | Average motility of 4 parasites with 95% CI at 24 hour time point ([3]; 24 h, immature flukes, score 1 normal to 5 no movement or death) | Average motility of 4 parasites with 95% CI at 48 hour time point ([3]; 48 h, immature flukes, score 1 to 5) | Average motility of 4 parasites with 95% CI at 72 hour time point ([3]; 72 h, immature flukes, score 1 to 5) | Effect on immature fluke motility, in words ([3]; by 72 h)
1 | CC1(C)CC[C@]2(NC(N)=O)CC[C@]3(C)C(=CCC4[C@@]5(C)CCC6OC(C)(C)OC[C@@]6(C)C5CC[C@]43C)C2C1 (stereo partly drawn) [MC024, 1-((4aR,6aR,6bS,8aS,14bR)-2,2,4a,6a,6b,11,11,14b-Octamethyl-4a,5,6,6a,6b,7,8,9,10,11, 12, 12a,14,14a, 14b,15,16,16a-octadecahydro-4H-piceno[3,4-d][1,3]dioxin-8a(4bH)-yl)urea] | 5.00 (5.0;5.0) | 5.00 (5.0;5.0) | 5.00 (5.0;5.0) | 5.00 (5.0;5.0) | 5.00 (5.0;5.0) | 5.00 (5.0;5.0) | maximal alterations to both phenotype/ultrastructure and motility | less severe motility defects | 4.25 (3.2;5.7) | – | – | – | –
2 | CC(=O)OCC1(C)C(OC(C)=O)CCC2(C)C1CCC1(C)C2CC=C2C3CC(C)(C)CCC3(NC(=O)N3CCCC3)CCC21C (centres unmarked) [MC056] | 5.00 (5.0;5.0) | 6.00 (6.0;6.0) | 5.00 (5.0;5.0) | 6.00 (6.0;6.0) | 5.00 (5.0;5.0) | 6.00 (6.0;6.0) | maximal alterations to both phenotype/ultrastructure and motility | less severe motility defects; also recorded: limited activity | 4.25 (3.3;5.1) | – | – | – | –
3 | CC(=O)OC[C@@]1(C)C2CC[C@]3(C)C(CC=C4C5CC(C)(C)CC[C@]5(NC(=O)N5CCCC5)CC[C@]43C)[C@@]2(C)CC[C@@H]1O (stereo partly drawn) [MC057, ((3S,4R,6aR,6bS,8aS,14bR)-3-Hydroxy-4,6a,6b,11,11,14b-hexamethyl-8a-(pyrrolidine-1-carbox-amido)-1,2,3,4,4a,5,6,6a,6b,7,8,8a,9,10,11,12,12a,14,14a, 14b-icosahydropicen-4-yl)-methyl acetate] | 5.00 (5.0;5.0) | 6.00 (6.0;6.0) | 5.00 (5.0;5.0) | 6.00 (6.0;6.0) | 5.00 (5.0;5.0) | 6.00 (6.0;6.0) | maximal alterations to both phenotype/ultrastructure and motility | partial paralysis | 5.00 (5.0;5.0) | 3.50 (2.5;4.4) | 4.25 (3.3;5.1) | 4.50 (3.5;5.4) | least active in this series
4 | CC1(C)CC[C@]2(N=C=O)CC[C@]3(C)C(=CCC4[C@@]5(C)CCC6OC(C)(C)OC[C@@]6(C)C5CC[C@]43C)C2C1 (stereo partly drawn) [MC015, (4aR,6aR,6bS,8aS,14bR)-8a-Isocyanato-2,2,4a,6a,6b,11,11,14b-octamethyl-4a,4b,5,6,6a,6b,7,8,8a,9, 10,11,12,12a,14,14a,14b,15,16,16a-eicosahydro-4H-piceno[3,4-d][1,3]dioxine] | 2.56 (2;3) | 2.24 (1.6;2.8) | 3.08 (2.4;3.6) | 2.84 (2;3.5) | 3.12 (2.4;3.7) | 3.56 (2.7;4.3) | None of the three passed the first screen | – | – | – | – | – | –
5 | CC1(C)CC[C@]2(NC(=O)N3CCCC3)CC[C@]3(C)C(=CCC4[C@@]5(C)CCC6OC(C)(C)OC[C@@]6(C)C5CC[C@]43C)C2C1 (stereo partly drawn) [MC023, N-((4aR,6aR,6bS,8aS,14bR)-2,2,4a,6a,6b,11,11,14b-Octamethyl-4a,5,6,6a,6b,7,8,9,10,11,12,12a,14,14a, 14b,15,16,16a-octadecahydro-4H-piceno[3,4-d][1,3]dioxin-8a(4bH)-yl)-pyrolidine-1-carboxamide] | 5.00 (5.0;5.0) | 5.00 (5.0;5.0) | 5.00 (5.0;5.0) | 5.00 (5.0;5.0) | 5.00 (5.0;5.0) | 5.00 (5.0;5.0) | maximal alterations to both phenotype/ultrastructure and motility | less severe motility defects | 4.75 (3.5;5.9) | – | – | – | –
6 | CC(=O)OC[C@]12CCC(C)(C)CC1C1=CCC3[C@@]4(C)CCC5OC(C)(C)OC[C@@]5(C)C4CC[C@@]3(C)[C@]1(C)CC2 (stereo partly drawn) [MC031, ((4aR,6aR,6bS,8aS,14bR)-2,2,4a,6a,6b,11,11,14b-Octamethyl-4a,5,6,6a,6b,7,8,9,10,11,12,12a,14,14a, 14b,15,16,16a-octadecahydro-4H-piceno[3,4-d][1,3]dioxin-8a(4bH)-yl)methyl acetate] | 2.96 (2.4;3.4) | 2.72 (1.9;3.4) | 2.76 (2;3.4) | 3.64 (2.9;4.3) | 3.44 (2.6;4.2) | 4.80 (4.2;5.3) | – | – | – | – | – | – | –
7 | CC(=O)OC[C@]12CCC(C)(C)CC1C1=CCC3[C@@]4(C)CC[C@H](O)[C@@](C)(CO)C4CC[C@@]3(C)[C@]1(C)CC2 (stereo partly drawn) [MC037, ((4aS,6aS,6bR,9R,10S,12aR)-10-Hydroxy-9-(hydroxymethyl)-2,2,6a,6b,9,12a-hexamethyl-1,3,4,5,6,6a, 6b,7,8,8a,9,10,11,12,12a,12b,13,14b-octadecahydropicen-4a(2H)-yl)methyl acetate] | 5.00 (5.0;5.0) | 6.00 (6.0;6.0) | 5.00 (5.0;5.0) | 6.00 (6.0;6.0) | 5.00 (5.0;5.0) | 6.00 (6.0;6.0) | maximal alterations to both phenotype/ultrastructure and motility | less severe motility defects | 3.25 (2;4.4) | – | – | – | –

— publication PMC10385850, “Modified Hederagenin Derivatives Demonstrate Ex Vivo Anthelmintic Activity against Fasciola hepatica” (Pharmaceutics, 2023)
